{"source": "patent US12370161B2", "about": "“Composition for treating atopy or pruritus comprising N-acetyl or N-acyl amino acid” (STEMDR INC., priority 2017, dated 2025)", "key": {"IL4": {"test_system": "IL4", "assay": "IL4 mRNA in skin tissue by quantitative real-time PCR, Balb/c", "assay_type": "in vivo, mouse", "settings": "atopy-induced Balb/c mice, normalized to β-actin", "protocol": "(§1) After isolating total RNA from the atopy-induced skin tissue using 500 μL of Trizol (Life Technologies, USA) according to the manufacturer's protocol and synthesizing cDNA using the Superscript III reverse transcriptase (Life Technologies, USA), real-time PCR was conducted by reacting with the primers of IL4 and interferon γ to be analyzed. The real-time PCR was conducted on a StepOne Plus PCR cycler (Applied Biosystems) using SYBR Green (Applied Biosystems, Foster City, CA). The mRNA expression data were analyzed by the ΔΔCT method and were normalized to β-actin for gene detection. The primers necessary for the real-time PCR were purchased from Qiagen (USA). […] IL4 is known to induce TH2 response and interferon γ is known to induce TH1 response."}, "[1]": {"test_system": "atopic dermatitis-induced Balb/c mouse", "assay": "SCORAD clinical skin score, DNFB-induced atopic dermatitis in Balb/c mouse", "assay_type": "in vivo", "set-up": "key to Mouse 1 Sum / Mean (of Sum, SCORAD) / Mouse 2 Sum / Mouse 3 Sum: sum of symptom grades, each 0 (none) to 3 (severe)", "settings": "for skin-soothing and atopic dermatitis-treating effect (SCORAD, Table 1, FIG. 2A): Balb/c atopic dermatitis model, 0.1% topical, P<0.05 versus DNFB group; for apparent degree of dermatitis (back skin images, FIG. 2B): Balb/c, treated for 7 days, day 29; for Mouse 1 Erythema / Mouse 1 Abrasion / Mouse 1 Dryness / Mouse 1 Edema / Mouse 1 Eschar / Mouse 1 Lichenification / Mouse 1 Sum / Mouse 2 Abrasion / Mouse 2 Dryness / Mouse 2 Edema / Mouse 2 Erythema / Mouse 2 Eschar / Mouse 2 Lichenification / Mouse 2 Sum / Mouse 3 Abrasion / Mouse 3 Dryness / Mouse 3 Edema / Mouse 3 Erythema / Mouse 3 Eschar / Mouse 3 Lichenification / Mouse 3 Sum / Mean (of Sum, SCORAD): DNFB Balb/c; for Mouse 1 Erythema: 0.1% in PBS, 200 μL on back skin daily day 22-28, grade 0-3 (0 no symptom, 1 mild, 2 moderate, 3 severe); for Mouse 1 Abrasion / Mouse 1 Dryness / Mouse 1 Edema / Mouse 1 Eschar / Mouse 1 Lichenification / Mouse 1 Sum / Mouse 2 Abrasion / Mouse 2 Dryness / Mouse 2 Edema / Mouse 2 Erythema / Mouse 2 Eschar / Mouse 2 Lichenification / Mouse 2 Sum / Mouse 3 Abrasion / Mouse 3 Dryness / Mouse 3 Edema / Mouse 3 Erythema / Mouse 3 Eschar / Mouse 3 Lichenification / Mouse 3 Sum / Mean (of Sum, SCORAD): 0.1% topical day 22-28; for Mouse 1 Abrasion / Mouse 1 Dryness / Mouse 1 Edema / Mouse 1 Eschar / Mouse 1 Lichenification / Mouse 2 Abrasion / Mouse 2 Dryness / Mouse 2 Edema / Mouse 2 Erythema / Mouse 2 Eschar / Mouse 2 Lichenification / Mouse 3 Abrasion / Mouse 3 Dryness / Mouse 3 Edema / Mouse 3 Erythema / Mouse 3 Eschar / Mouse 3 Lichenification: grade 0-3; for Mouse 1 Sum / Mouse 2 Sum / Mouse 3 Sum: overall dermatitis score, sum of individual scores; for Mean (of Sum, SCORAD): mean of 3 mice", "protocol": "In order to induce atopy-like dermatitis in Balb/c mice, DNFB sensitization was induced by applying 100 μL of 0.35% 2,4-dinitrofluorobenzene (DNFB) (Sigma, USA) in acetone/olive oil (3:1) on the shaved back skin of the mice. Then, dermatitis was induced by applying 100 μL of 0.25% DNFB on days 6, 9, 12, 15, 18 21, 24 and 27 on the shaved back skin. Control mice were treated with a vehicle of the same volume (FIG. 1A).\nAfter dissolving an N-acetyl or N-acylamino acid in phosphate-buffered saline to 0.1%, 200 μL of the solution was applied on the back skin of the mice every day, from day 22 until day 28 for the Balb/c atopic dermatitis model, and from day 15 until day 21 for the Nc/Nga atopic dermatitis model. When the N-acetyl or N-acylamino acid was treated together with DNFB, they were treated with 12-hour intervals in order to avoid direct reaction between the DNFB and the N-acetyl or N-acylamino acid. A non-treated group and a 2,4-dinitrofluorobenzene (DNFB) group were treated with phosphate-buffered saline of the same volume (FIGS. 1A-1B). As the N-acetylamino acid, products purchased from Sigma-Aldrich (USA), MP scientific (USA), TCI (Tokyo Chemical Industry, Japan), Santacruz (USA), etc. were used without purification.\nThe degree of skin soothing and the severity of atopic dermatitis were evaluated macroscopically according to the previously established SCORAD (SCORing Atopic Dermatitis) method (Oranje et al., 2007). The degree of symptoms such as edema, erythema, eschar, dryness, abrasion, lichenification, etc. was graded from 0 to 3 (0, no symptom; 1, mild; 2, moderate; 3, severe). The overall dermatitis score was determined from the sum of all individual scores (Table 1). The assessment was performed by an investigator who was blind to the grouping of the mice."}, "interferon γ": {"test_system": "interferon γ", "assay": "Interferon γ mRNA in skin tissue by quantitative real-time PCR, Balb/c", "assay_type": "in vivo, mouse", "settings": "atopy-induced Balb/c mice, normalized to β-actin", "protocol": "as §1"}, "IgE": {"test_system": "IgE", "assay": "Serum IgE level by ELISA, Balb/c", "assay_type": "in vivo, mouse", "settings": "atopy-induced Balb/c mice", "protocol": "After treatment with the test substance, the mice were sacrificed and blood was taken from the heart. After isolating serum from the blood, IgE level was measured. Specifically, after attaching antibodies diluted in a buffer solution onto a 96-well plate and incubating overnight at 4° C., experiment was conducted using an IgE ELISA kit (BD Biosciences, San Diego, CA) according to the provided manual. The quantity of the IgE protein was determined by measuring absorbance at 450 nm using a microplate reader."}, "[2]": {"test_system": "pruritus caused by atopic contact dermatitis", "assay": "Pruritus inhibition test, pruritus induced with DNFB", "assay_type": "in vivo, mouse", "settings": "0.1% in physiological saline applied once onto right ear; pruritus measured for 1 hour", "protocol": "In order to investigate whether L-form, LID-form and D-form N-acetylalanine, N-acetylarginine, N-acetylthreonine and N-acetyltryptophan inhibit pruritus caused by atopic contact dermatitis, 20 μL of 0.1% 2,4-dinitrofluorobenzene (DNFB) solution and 0.1% N-acetylamino acid dissolved in physiological saline were applied once onto the right ear 10 minutes after the final treatment (day 27) with 2,4-dinitrofluorobenzene (DNFB) (Physiological saline was applied to a negative control group), and then pruritus was measured for 1 hour. FIG. 7 compares the pruritus-relieving effect of L-form N-acetylalanine, N-acetylthreonine, N-acetylarginine and N-acetyltryptophan with D/L-form and D-form N-acetylalanine and N-acetyltryptophan at 0.1% after the induction of pruritus with DNFB."}}, "note": "Entries after “also recorded” stand apart in the source; their conditions may differ.", "data": [{"compound": "CC(=O)N[C@@H](CS)C(=O)O", "note": "[N-acetyl-L-cysteine, reference compound]", "values": [{"measurement": "level of IL4 in the skin tissue (FIG. 5A)", "setting": "IL4", "result": "significantly decreased"}, {"measurement": "skin-soothing and atopic dermatitis-treating effect (SCORAD, Table 1, FIG. 2A)", "setting": "[1]", "result": "significant skin-soothing and atopic dermatitis-treating effects; also recorded: significant atopic dermatitis-treating effect"}, {"measurement": "apparent degree of dermatitis (back skin images, FIG. 2B)", "setting": "[1]", "result": "decreased remarkably"}, {"measurement": "Mouse 1 Erythema", "setting": "[1]", "result": 2}, {"measurement": "Mouse 1 Abrasion", "setting": "[1]", "result": 2}, {"measurement": "Mouse 1 Dryness", "setting": "[1]", "result": 2}, {"measurement": "Mouse 1 Edema", "setting": "[1]", "result": 2}, {"measurement": "Mouse 1 Eschar", "setting": "[1]", "result": 2}, {"measurement": "Mouse 1 Lichenification", "setting": "[1]", "result": 3}, {"measurement": "Mouse 1 Sum", "setting": "[1]", "result": 13}, {"measurement": "Mouse 2 Abrasion", "setting": "[1]", "result": 2}, {"measurement": "Mouse 2 Dryness", "setting": "[1]", "result": 3}, {"measurement": "Mouse 2 Edema", "setting": "[1]", "result": 1}, {"measurement": "Mouse 2 Erythema", "setting": "[1]", "result": 2}, {"measurement": "Mouse 2 Eschar", "setting": "[1]", "result": 2}, {"measurement": "Mouse 2 Lichenification", "setting": "[1]", "result": 3}, {"measurement": "Mouse 2 Sum", "setting": "[1]", "result": 13}, {"measurement": "Mouse 3 Abrasion", "setting": "[1]", "result": 2}, {"measurement": "Mouse 3 Dryness", "setting": "[1]", "result": 2}, {"measurement": "Mouse 3 Edema", "setting": "[1]", "result": 2}, {"measurement": "Mouse 3 Erythema", "setting": "[1]", "result": 1}, {"measurement": "Mouse 3 Eschar", "setting": "[1]", "result": 2}, {"measurement": "Mouse 3 Lichenification", "setting": "[1]", "result": 2}, {"measurement": "Mouse 3 Sum", "setting": "[1]", "result": 11}, {"measurement": "Mean (of Sum, SCORAD)", "setting": "[1]", "result": 12.33}, {"measurement": "level of interferon γ in the skin tissue (FIG. 5A)", "setting": "interferon γ", "result": "significantly decreased"}, {"measurement": "serum IgE level (FIG. 4A)", "setting": "IgE", "result": "significant decrease"}]}, {"compound": "CC(=O)N[C@H](C(=O)O)[C@@H](C)O", "note": "[N-acetyl-L-threonine]", "values": [{"measurement": "pruritus-relieving effect (FIG. 7)", "setting": "[2]", "result": "significantly inhibited pruritus"}, {"measurement": "level of IL4 in the skin tissue (FIG. 5A)", "setting": "IL4", "result": "significantly decreased"}, {"measurement": "skin-soothing and atopic dermatitis-treating effect (SCORAD, Table 1, FIG. 2A)", "setting": "[1]", "result": "significant skin-soothing and atopic dermatitis-treating effects; also recorded: significant atopic dermatitis-treating effect"}, {"measurement": "apparent degree of dermatitis (back skin images, FIG. 2B)", "setting": "[1]", "result": "decreased remarkably"}, {"measurement": "Mouse 1 Erythema", "setting": "[1]", "result": 1}, {"measurement": "Mouse 1 Abrasion", "setting": "[1]", "result": 1}, {"measurement": "Mouse 1 Dryness", "setting": "[1]", "result": 2}, {"measurement": "Mouse 1 Edema", "setting": "[1]", "result": 1}, {"measurement": "Mouse 1 Eschar", "setting": "[1]", "result": 1}, {"measurement": "Mouse 1 Lichenification", "setting": "[1]", "result": 1}, {"measurement": "Mouse 1 Sum", "setting": "[1]", "result": 7}, {"measurement": "Mouse 2 Abrasion", "setting": "[1]", "result": 1}, {"measurement": "Mouse 2 Dryness", "setting": "[1]", "result": 0}, {"measurement": "Mouse 2 Edema", "setting": "[1]", "result": 1}, {"measurement": "Mouse 2 Erythema", "setting": "[1]", "result": 1}, {"measurement": "Mouse 2 Eschar", "setting": "[1]", "result": 1}, {"measurement": "Mouse 2 Lichenification", "setting": "[1]", "result": 1}, {"measurement": "Mouse 2 Sum", "setting": "[1]", "result": 5}, {"measurement": "Mouse 3 Abrasion", "setting": "[1]", "result": 0}, {"measurement": "Mouse 3 Dryness", "setting": "[1]", "result": 1}, {"measurement": "Mouse 3 Edema", "setting": "[1]", "result": 1}, {"measurement": "Mouse 3 Erythema", "setting": "[1]", "result": 1}, {"measurement": "Mouse 3 Eschar", "setting": "[1]", "result": 2}, {"measurement": "Mouse 3 Lichenification", "setting": "[1]", "result": 1}, {"measurement": "Mouse 3 Sum", "setting": "[1]", "result": 6}, {"measurement": "Mean (of Sum, SCORAD)", "setting": "[1]", "result": 6}, {"measurement": "level of interferon γ in the skin tissue (FIG. 5A)", "setting": "interferon γ", "result": "significantly decreased"}, {"measurement": "serum IgE level (FIG. 4A)", "setting": "IgE", "result": "significant decrease"}]}, {"compound": "CC(=O)N[C@@H](CCCNC(=N)N)C(=O)O", "note": "[N-acetyl-L-arginine]", "values": [{"measurement": "pruritus-relieving effect (FIG. 7)", "setting": "[2]", "result": "significantly inhibited pruritus"}, {"measurement": "level of IL4 in the skin tissue (FIG. 5A)", "setting": "IL4", "result": "significantly decreased"}, {"measurement": "skin-soothing and atopic dermatitis-treating effect (SCORAD, Table 1, FIG. 2A)", "setting": "[1]", "result": "significant skin-soothing and atopic dermatitis-treating effects; also recorded: significant atopic dermatitis-treating effect"}, {"measurement": "apparent degree of dermatitis (back skin images, FIG. 2B)", "setting": "[1]", "result": "decreased remarkably"}, {"measurement": "Mouse 1 Erythema", "setting": "[1]", "result": 1}, {"measurement": "Mouse 1 Abrasion", "setting": "[1]", "result": 1}, {"measurement": "Mouse 1 Dryness", "setting": "[1]", "result": 1}, {"measurement": "Mouse 1 Edema", "setting": "[1]", "result": 1}, {"measurement": "Mouse 1 Eschar", "setting": "[1]", "result": 1}, {"measurement": "Mouse 1 Lichenification", "setting": "[1]", "result": 1}, {"measurement": "Mouse 1 Sum", "setting": "[1]", "result": 6}, {"measurement": "Mouse 2 Abrasion", "setting": "[1]", "result": 1}, {"measurement": "Mouse 2 Dryness", "setting": "[1]", "result": 1}, {"measurement": "Mouse 2 Edema", "setting": "[1]", "result": 1}, {"measurement": "Mouse 2 Erythema", "setting": "[1]", "result": 1}, {"measurement": "Mouse 2 Eschar", "setting": "[1]", "result": 1}, {"measurement": "Mouse 2 Lichenification", "setting": "[1]", "result": 1}, {"measurement": "Mouse 2 Sum", "setting": "[1]", "result": 6}, {"measurement": "Mouse 3 Abrasion", "setting": "[1]", "result": 0}, {"measurement": "Mouse 3 Dryness", "setting": "[1]", "result": 1}, {"measurement": "Mouse 3 Edema", "setting": "[1]", "result": 1}, {"measurement": "Mouse 3 Erythema", "setting": "[1]", "result": 1}, {"measurement": "Mouse 3 Eschar", "setting": "[1]", "result": 1}, {"measurement": "Mouse 3 Lichenification", "setting": "[1]", "result": 1}, {"measurement": "Mouse 3 Sum", "setting": "[1]", "result": 5}, {"measurement": "Mean (of Sum, SCORAD)", "setting": "[1]", "result": 5.67}, {"measurement": "level of interferon γ in the skin tissue (FIG. 5A)", "setting": "interferon γ", "result": "significantly decreased"}, {"measurement": "serum IgE level (FIG. 4A)", "setting": "IgE", "result": "significant decrease"}]}]}
